Experimental findings from patent US8329222B1, “Magnetic nanomedicine for tumor suppression and therapy” (priority 2011, dated 2012) are described below.

The test system of experiment [1] is human bladder tumor cells (MGH-U1). The experiment in a line: XTT growth suppression test on bladder tumor cells. In kind it is cell-based. Particulars: cultivated with MGH-U1 for 27 hours, no magnetic field, read-out: cell growth inhibit efficiency.
Method: Cell Cultivation: Place 150 μL of a mixture liquid containing 10,000 human bladder tumor cells (MGH-U1) into each well of 96-well culture plate. Place the culture plate in a humidified incubator in a temperature of 37° C. and with 5% CO2 to enable adherent growth of the cells.
Agent Addition: 24 hours later, mix separately MNPs (concentration 600 μg/mL) EPI (concentrations 2, 5, 10 μM), and EPI/SPAnH/MNPs magnetic nanomedicine (concentrations 2, 5, 10 μM) with a RPMI1640 medium to form mixed solutions. Add respectively 50 μL of the mixed solutions to well, and then place the culture plate in a humidified incubator having 5% CO2 for 2, 4, 6, 10, and 27 hours.
Cell Counting: Remove RPMI1640 medium in the well and add 120 μL of an XTT reaction liquid (2,3-Bis(2-methoxy-4-nitro-5-sulfophenyl)-2H-tetrazolium-5-carboxanilide inner salt) to the wells. Use an ELISA reader (BIO-TEK, model EL 808) to measure the OD (Optical Density) values of each cell at a wavelength of 490 nm to determine the toxicity of SPAnH/MNPs magnetic nanocomposite and the cell-killing rate of EPI/SPAnH/MNPs magnetic nanomedicines to the bladder tumor cells.
Cell Cultivation: Place 150 μL of a mixture liquid containing 10,000 human bladder tumor cells (MGH-U1) into each well of 96-well culture plate. […]
Experiment [2] concerns bladder tumor cells MGH-U1. In words: Fluorescence microscopy of cell entry after 4 hours. Type of experiment: cell-based, human. Particulars: reacted 4 hours, fluorescent microscope photos. The protocol:
Add 2 mL of a mixture liquid containing 20,000 bladder tumor cells MGH-U1 to a 3.5 cm diameter cultivation plate. Place the cultivation plate in a humidified incubator having 5% CO2 in a temperature of 37° C. to enable adherent growth of the cells. Twenty-four hours later, add to the cultivation plate, 100 μL of RPMI1640 medium containing EPI, EPI/SPAnH/MNPs magnetic nanomedicine, DOX, and DOX/SPAnH/MNPs magnetic nanomedicine to react for 4 hours, then flush it with 1 mL of Hanks' balance slat solution (HBSS).

`COc1cccc2c1C(=O)c1c(O)c3c(c(O)c1C2=O)C[C@@](O)(C(=O)CO)C[C@@H]3O[C@H]1C[C@H](N)[C@@H](O)[C@H](C)O1` [EPI, Epirubicin]: the inhibition at 10 µM in experiment [1] came out at 64.3%. Further, the “entry into bladder tumor cell MGH-U1” value in experiment [2] is “do enter into the bladder tumor cell MGH-U1”.

As for `COc1cccc2c1C(=O)c1c(O)c3c(c(O)c1C2=O)C[C@@](O)(C(=O)CO)C[C@@H]3O[C@H]1C[C@H](N)[C@H](O)[C@H](C)O1` [DOX, Doxorubicin], the inhibition at 10 µM in experiment [1] stood at 66.2%. In experiment [2], the “entry into bladder tumor cell MGH-U1” value is recorded as “do enter into the bladder tumor cell MGH-U1”.
